Data: ChEMBL document CHEMBL1201862, “PubChem BioAssay data set” (2004)
Activity calls are given as the source filed them.

Key:
[1] = biological target: Potassium voltage-gated channel subfamily KQT member 2 (Rattus norvegicus, UniProt O88943, W236L); test: potentiation of rat KCNQ2 current – cell-based, automated electrophysiology, mechanism study for KCNQ2 potentiator project, dose response (AID 2603); format: functional
[2] = biological target: T1, Replicative DNA helicase DnaB (Mycobacterium tuberculosis, UniProt P9WMR3); test: DnaB intein splicing inhibitors, dose response, biochemical, cell-free fluorescence (AID 449749); format: functional
T1 sequence (P9WMR3 whole entry): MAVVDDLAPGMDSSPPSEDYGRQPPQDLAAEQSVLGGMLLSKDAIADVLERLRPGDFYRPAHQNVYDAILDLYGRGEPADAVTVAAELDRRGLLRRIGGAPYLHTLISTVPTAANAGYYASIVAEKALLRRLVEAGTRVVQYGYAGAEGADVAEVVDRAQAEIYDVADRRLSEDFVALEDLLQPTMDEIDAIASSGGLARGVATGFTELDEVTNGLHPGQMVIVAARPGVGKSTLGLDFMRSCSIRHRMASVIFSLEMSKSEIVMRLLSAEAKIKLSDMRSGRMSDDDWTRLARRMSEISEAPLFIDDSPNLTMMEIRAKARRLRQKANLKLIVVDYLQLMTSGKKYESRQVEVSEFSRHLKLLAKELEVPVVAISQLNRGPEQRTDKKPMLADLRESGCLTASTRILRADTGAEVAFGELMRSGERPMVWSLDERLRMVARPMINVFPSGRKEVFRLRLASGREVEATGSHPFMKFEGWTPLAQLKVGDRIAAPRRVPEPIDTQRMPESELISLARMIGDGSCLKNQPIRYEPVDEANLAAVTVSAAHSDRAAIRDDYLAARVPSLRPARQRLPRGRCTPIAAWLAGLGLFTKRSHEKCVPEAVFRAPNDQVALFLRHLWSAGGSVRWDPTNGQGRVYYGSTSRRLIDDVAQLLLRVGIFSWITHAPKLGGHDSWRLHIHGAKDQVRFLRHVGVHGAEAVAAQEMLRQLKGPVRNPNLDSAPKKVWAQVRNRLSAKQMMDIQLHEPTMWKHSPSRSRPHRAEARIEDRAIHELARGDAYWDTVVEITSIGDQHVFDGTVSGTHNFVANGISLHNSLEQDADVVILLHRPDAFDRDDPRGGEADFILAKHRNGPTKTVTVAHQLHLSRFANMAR

[3] = test system: Vero; test: viability of Vero cells under compound – cytotoxicity control for flavivirus capping enzyme inhibitors (AID 588742); format: functional; conditions: Chlorocebus sabaeus
[4] = biological target: T2, Protein RecA (Mycobacterium tuberculosis, UniProt P9WHJ3); test: Fluorescence Cell-Free Homogeneous Dose Retest to Identify Inhibitors of RecA-Intein Splicing Activity. [Related pubchem assays (depositor defined):AID2097, AID2223, AID489010, AID492950]; format: functional
T2 sequence (P9WHJ3 whole entry): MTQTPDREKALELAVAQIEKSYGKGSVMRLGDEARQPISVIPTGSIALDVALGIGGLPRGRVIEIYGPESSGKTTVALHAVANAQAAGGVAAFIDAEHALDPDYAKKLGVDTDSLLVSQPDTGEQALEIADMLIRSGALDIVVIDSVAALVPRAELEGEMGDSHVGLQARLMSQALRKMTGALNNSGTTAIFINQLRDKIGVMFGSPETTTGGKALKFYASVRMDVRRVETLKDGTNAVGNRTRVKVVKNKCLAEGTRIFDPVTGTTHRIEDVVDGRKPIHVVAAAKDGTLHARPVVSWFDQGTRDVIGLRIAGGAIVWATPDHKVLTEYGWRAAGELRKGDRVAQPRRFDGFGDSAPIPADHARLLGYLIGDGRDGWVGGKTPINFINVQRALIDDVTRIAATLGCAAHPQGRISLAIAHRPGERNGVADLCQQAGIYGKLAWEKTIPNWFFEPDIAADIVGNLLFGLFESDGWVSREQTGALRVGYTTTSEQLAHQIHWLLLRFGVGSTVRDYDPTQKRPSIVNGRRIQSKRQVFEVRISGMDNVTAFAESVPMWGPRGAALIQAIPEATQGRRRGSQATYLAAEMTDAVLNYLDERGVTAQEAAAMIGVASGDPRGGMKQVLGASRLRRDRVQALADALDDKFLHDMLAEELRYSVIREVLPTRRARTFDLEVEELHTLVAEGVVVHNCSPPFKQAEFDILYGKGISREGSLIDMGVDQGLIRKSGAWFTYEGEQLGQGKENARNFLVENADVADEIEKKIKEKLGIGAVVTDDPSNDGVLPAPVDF

[5] = biological target: Genome polyprotein (dengue virus type 2, UniProt P29990); test: flavivirus cap methylation enzyme inhibition – biochemical, confirmation dose response, primary screen (AID 588689); format: functional
[6] = reduction of Shn3 3'UTR-driven luciferase in osteoblasts – cell-based, Clone20 osteoblasts, firefly luciferase, cherry-picked, dose response (AID 624132); format: functional;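 also: firefly luciferase luminescence from reporter carrying the Shn3 3'UTR in osteoblasts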
[7] = loss of viability in HepG2 cells – cell-based, CellTiter-Glo, cherry-picked, cytotoxicity control for Shn3 inhibitor project, dose response (AID 624134); format: functional
[8] = non-specific 3'UTR reporter inhibition in Clone20-Shn3RL – cell-based, Renilla luciferase, cherry-picked, counter-screen for Shn3 inhibitor project, dose response (AID 624133); format: functional
[9] = biological target: T3, Hepatocyte nuclear factor 4-alpha (Homo sapiens, UniProt P41235); format: functional, cell-based;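 also: biochemical luminescence-based dose-response counterscreen measuring inhibition of HNF4 dimerization, run alongside a screen for blockers of ABHD5–perilipin-5 interaction; split luciferase complementation of HNF4 fusion proteins in cell lysate measuring dimerization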
T3 sequence (P41235 whole entry): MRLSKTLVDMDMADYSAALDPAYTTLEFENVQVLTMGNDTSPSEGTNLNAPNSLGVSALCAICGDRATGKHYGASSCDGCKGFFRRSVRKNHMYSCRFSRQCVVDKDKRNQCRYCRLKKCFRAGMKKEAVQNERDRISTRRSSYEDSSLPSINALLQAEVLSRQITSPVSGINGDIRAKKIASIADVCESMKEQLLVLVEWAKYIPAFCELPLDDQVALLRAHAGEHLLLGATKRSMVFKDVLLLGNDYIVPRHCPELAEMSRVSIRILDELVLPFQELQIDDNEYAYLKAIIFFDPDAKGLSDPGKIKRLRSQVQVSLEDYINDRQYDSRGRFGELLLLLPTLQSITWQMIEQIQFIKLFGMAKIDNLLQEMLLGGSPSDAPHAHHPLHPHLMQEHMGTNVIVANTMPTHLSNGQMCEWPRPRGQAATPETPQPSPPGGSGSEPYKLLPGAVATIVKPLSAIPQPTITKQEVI

[10] = biological target: T4, Heat shock 70 kDa protein 1A (Homo sapiens, UniProt P0DMV8); test: small-molecule inhibition of Hsp70 – biochemical, TR-FRET (AID 786)
[11] = biological target: T4, Heat shock 70 kDa protein 1A; test: small molecules displacing fluorescent ligand from Hsp70 – biochemical, fluorescence polarization, primary screen (AID 583)
[12] = biological target: G2/mitotic-specific cyclin-B1 (Homo sapiens, UniProt P14635); test: Counterscreen assay for inhibitors of Wee1 degradation: dose response cell-based assay to identify inhibitors of cyclin B degradation. [Related pubchem assays: 1410, 1321 ]; format: functional
[13] = biological target: Wee1-like protein kinase (Homo sapiens, UniProt P30291); test: Dose Response Cell-based Assay for Inhibitors of Wee1 Degradation. [Related pubchem assays: 1410, 1321 ]; format: functional
[14] = HEK-293T viability loss after treatment – luminescence, T-cell screen hits, cytotoxicity control for TCR NF-kB inhibitor project, dose response (AID 489026); format: functional, cell-based;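 also: cells exposed to compound about 14 hours before the viability readout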
[15] = Counterscreen for IDE inhibitors: Luminescence-based cell-based high throughput dose response assay to identify compounds that are cytotoxic to HEK cells. [Related pubchem assays: 434962 (Primary screen (IDE inhibitors in singlicate)), 449730 (Counterscreen (Cytotoxicity in triplicate)), 435028 (Confirmation (IDE inhibitors in triplicate)) …; format: functional; conditions: HEK293
[16] = biological target: T5, Insulin-degrading enzyme (Homo sapiens, UniProt P14735); test: Dose Response: Fluorescence polarization-based cell-based high throughput dose response assay for inhibitors of insulin-degrading enzyme (IDE). [Related pubchem assays: 434962 (Primary screen (IDE inhibitors in singlicate)), 449730 (Counterscreen (Cytotoxicity in triplicate)), 435028 (Confirmation (IDE inhibitors in triplicate)), 434984 (Summary …; format: functional
T5 sequence (P14735 whole entry): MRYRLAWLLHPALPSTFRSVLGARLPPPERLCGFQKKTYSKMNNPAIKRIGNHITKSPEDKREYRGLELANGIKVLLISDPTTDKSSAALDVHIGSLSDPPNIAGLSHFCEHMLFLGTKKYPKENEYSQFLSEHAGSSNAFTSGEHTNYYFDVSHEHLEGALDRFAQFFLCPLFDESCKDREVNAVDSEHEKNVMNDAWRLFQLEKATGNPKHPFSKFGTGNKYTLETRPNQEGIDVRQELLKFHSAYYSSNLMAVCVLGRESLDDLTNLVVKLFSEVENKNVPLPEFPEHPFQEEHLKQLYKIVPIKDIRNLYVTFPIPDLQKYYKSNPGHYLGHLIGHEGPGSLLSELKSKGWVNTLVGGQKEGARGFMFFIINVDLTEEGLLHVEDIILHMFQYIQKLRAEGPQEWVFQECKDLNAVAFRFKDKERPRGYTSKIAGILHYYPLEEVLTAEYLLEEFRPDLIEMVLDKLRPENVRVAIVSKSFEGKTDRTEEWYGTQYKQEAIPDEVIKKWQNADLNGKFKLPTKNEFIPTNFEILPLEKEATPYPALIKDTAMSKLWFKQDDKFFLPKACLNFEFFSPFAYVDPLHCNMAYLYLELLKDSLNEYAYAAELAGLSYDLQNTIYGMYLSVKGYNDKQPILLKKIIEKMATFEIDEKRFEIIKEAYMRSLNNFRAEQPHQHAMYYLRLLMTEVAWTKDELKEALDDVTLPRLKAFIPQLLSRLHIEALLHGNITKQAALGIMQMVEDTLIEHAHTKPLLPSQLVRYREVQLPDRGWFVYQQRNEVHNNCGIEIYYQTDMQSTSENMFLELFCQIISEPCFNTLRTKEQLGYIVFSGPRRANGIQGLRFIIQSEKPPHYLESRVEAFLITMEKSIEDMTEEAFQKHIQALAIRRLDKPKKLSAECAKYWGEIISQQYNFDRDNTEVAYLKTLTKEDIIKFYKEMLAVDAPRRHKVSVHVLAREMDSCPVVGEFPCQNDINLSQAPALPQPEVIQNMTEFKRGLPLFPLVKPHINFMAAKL

[17] = Luminescence Cell-Based Dose-Confimation HTS to Identify Inhibitors of 5'UTR Stem-Loop Driven Alpha-Synuclein mRNA Translation in H4 Neuroglioblastoma Cells. [Related pubchem assays: 1827 (Project Summary), 1813 (Primary HTS)]; format: functional

T4 sequence (P0DMV8 whole entry): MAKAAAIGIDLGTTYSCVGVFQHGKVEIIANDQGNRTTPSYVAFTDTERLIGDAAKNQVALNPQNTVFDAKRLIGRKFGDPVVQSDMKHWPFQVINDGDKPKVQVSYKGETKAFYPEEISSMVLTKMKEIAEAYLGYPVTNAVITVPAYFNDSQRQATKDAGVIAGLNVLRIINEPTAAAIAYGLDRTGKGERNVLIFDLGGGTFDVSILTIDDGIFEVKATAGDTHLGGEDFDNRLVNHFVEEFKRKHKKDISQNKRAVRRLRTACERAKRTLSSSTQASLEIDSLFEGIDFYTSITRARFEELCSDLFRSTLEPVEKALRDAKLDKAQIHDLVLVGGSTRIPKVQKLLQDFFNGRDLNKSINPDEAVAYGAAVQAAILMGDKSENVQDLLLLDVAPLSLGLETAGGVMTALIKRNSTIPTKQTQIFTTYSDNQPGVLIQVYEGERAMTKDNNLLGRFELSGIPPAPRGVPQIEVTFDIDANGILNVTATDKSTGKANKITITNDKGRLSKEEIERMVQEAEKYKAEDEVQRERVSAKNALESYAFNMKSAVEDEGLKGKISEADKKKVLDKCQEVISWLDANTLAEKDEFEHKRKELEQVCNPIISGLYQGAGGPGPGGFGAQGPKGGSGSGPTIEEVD
G2/mitotic-specific cyclin-B1, sequence (P14635 whole entry): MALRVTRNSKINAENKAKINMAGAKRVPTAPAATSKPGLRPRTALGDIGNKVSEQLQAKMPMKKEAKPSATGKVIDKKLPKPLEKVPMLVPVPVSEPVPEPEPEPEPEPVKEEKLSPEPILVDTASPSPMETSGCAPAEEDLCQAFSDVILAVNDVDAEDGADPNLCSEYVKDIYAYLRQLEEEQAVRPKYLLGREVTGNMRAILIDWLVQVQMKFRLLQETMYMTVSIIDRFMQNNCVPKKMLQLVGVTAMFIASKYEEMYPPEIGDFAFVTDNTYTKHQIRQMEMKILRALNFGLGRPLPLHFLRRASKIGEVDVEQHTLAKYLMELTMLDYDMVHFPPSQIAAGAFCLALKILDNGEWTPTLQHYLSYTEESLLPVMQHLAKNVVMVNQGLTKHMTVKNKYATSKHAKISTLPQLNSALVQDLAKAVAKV
Wee1-like protein kinase, sequence (P30291 whole entry): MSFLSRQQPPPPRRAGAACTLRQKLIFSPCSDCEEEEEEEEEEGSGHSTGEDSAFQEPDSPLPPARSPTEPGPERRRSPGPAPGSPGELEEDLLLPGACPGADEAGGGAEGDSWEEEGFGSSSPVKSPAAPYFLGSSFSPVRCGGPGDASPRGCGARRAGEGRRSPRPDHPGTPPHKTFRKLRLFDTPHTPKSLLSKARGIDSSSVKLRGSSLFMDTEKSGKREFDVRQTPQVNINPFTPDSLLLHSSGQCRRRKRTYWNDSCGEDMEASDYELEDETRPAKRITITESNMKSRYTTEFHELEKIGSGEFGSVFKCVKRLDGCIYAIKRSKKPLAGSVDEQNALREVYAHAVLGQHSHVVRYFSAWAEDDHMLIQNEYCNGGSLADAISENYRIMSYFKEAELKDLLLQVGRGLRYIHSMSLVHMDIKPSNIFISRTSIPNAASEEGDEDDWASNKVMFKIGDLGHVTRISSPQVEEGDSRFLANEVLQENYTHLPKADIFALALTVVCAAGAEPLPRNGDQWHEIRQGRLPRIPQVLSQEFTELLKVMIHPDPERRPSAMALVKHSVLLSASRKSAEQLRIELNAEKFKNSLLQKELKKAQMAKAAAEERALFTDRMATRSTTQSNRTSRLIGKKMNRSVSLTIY
Genome polyprotein, sequence (P29990 2492-3391 limits assumed): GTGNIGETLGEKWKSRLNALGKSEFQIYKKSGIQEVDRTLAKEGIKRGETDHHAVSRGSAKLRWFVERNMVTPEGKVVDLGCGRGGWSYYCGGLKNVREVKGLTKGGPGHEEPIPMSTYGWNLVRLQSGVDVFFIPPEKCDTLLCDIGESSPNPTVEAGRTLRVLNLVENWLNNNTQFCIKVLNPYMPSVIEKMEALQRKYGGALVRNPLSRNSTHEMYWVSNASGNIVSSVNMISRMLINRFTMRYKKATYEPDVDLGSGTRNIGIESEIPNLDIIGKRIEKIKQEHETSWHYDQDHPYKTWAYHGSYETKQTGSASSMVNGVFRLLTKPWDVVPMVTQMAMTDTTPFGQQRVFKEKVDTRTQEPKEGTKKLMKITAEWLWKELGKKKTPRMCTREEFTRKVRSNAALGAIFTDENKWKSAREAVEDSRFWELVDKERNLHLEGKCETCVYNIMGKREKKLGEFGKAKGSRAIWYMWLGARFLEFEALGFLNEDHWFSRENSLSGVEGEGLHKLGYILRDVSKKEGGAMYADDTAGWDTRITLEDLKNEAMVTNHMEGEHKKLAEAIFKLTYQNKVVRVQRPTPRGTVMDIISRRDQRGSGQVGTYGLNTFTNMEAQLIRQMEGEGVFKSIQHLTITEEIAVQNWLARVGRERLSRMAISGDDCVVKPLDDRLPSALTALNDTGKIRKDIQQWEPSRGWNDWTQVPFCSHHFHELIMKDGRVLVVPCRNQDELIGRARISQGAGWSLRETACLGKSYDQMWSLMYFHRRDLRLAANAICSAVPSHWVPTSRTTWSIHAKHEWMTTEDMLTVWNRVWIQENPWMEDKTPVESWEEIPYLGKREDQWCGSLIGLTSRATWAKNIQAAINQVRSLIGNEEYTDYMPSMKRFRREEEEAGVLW
Potassium voltage-gated channel subfamily KQT member 2, sequence (O88943 whole entry W236L): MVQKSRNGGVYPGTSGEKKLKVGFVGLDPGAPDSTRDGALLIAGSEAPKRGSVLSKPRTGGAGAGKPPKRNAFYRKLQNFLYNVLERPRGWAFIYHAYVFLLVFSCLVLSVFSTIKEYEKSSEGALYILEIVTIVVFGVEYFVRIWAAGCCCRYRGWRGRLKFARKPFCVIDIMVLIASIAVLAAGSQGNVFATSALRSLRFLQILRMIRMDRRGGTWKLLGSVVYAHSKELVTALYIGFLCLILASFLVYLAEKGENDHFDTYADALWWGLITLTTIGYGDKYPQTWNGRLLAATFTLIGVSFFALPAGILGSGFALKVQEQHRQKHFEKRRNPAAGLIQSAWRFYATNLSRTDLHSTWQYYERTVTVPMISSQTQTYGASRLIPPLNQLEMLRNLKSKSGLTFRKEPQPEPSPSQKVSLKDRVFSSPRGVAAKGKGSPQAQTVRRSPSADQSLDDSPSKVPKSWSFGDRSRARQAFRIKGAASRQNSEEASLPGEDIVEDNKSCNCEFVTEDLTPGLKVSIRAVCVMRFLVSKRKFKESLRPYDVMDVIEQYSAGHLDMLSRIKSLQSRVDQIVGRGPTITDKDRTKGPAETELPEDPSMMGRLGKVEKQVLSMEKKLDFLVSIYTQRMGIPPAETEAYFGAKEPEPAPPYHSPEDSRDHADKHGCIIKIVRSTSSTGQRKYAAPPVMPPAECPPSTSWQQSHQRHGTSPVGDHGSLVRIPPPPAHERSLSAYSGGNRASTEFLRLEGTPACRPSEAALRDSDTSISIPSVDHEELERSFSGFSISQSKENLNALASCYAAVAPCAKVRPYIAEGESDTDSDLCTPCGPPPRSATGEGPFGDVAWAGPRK

## CSc1nnc(NC(=O)c2nc(S(=O)(=O)Cc3ccc(C)cc3)ncc2Cl)s1
[1]
  EC50: 34.9 µM (active)
[2]
  AC50: 5.31 µM (active)
[3]
  CC50: 30.9 µM (active)
[4]
  EC50: 3.26 µM (active)
[5]
  IC50: 40.5 µM (active)
[6]
  AC50: 3.18 µM (active)
[7]
  AC50: > 70 µM (inactive)
[8]
  AC50: 11.1 µM (active)
[9]
  IC50: 4.93 µM (active)

## CC(C)(C)n1nnnc1C(c1ccc2ncccc2c1)N1CCSCC1 (configuration not stated)
[10]
  IC50: > 100 µM (not active)
[11]
  IC50: > 100 µM (not active)

## Cc1csc2sc(-c3ccnc(SCC(=O)NCc4ccccc4)n3)c(C)c12
[12]
  EC50: > 49.7 µM (not active)
[13]
  EC50: > 49.7 µM (not active)
[14]
  IC50: > 80 µM (inactive)

## Cc1c(NC(=O)/C(C#N)=C/c2ccc(-c3ccc(Cl)cc3)o2)c(=O)n(-c2ccccc2)n1C
[15]
  IC50: 11.1 µM (not active)
[16]
  IC50: 2.7 µM (active)

## CN(C)c1nc(N)nc(CSc2nnnn2-c2ccc(Cl)cc2)n1
[17]
  EC50: > 100 µM (not active)
